Laboratory results reported in patent publication US7276337B2, “Compositions and methods for visual ribonuclease detection assays” (Integrated DNA Technologies, Inc., priority 2000, dated 2007).

What was measured:
[1] = target: RNase T1 (Aspergillus oryzae, UniProt P00651); assay: Fluorometric detection nuclease assay, RNase T1; type: biochemical; conditions: Substrate 50 nM, 37° C. 1 hour
Experimental: (§1) Nuclease assays were conducted using the method of the invention. The Substrate (SEQ ID NO:30) was mixed in 1× Assay Buffer at a concentration of 50 nM (150 pmoles oligonucleotide in 3 mls volume). Test nucleases were added to respective Assay Mixes, including 1 ul of RNase A (1 ug), 1 ul of RNase 1 (100 units), or 1 ul of RNase T1 (1000 units). […] Assays were set up directly in cuvettes as follows:
(§2) Assay Mixes were incubated at 37° C. for 1 hour. Assays were transferred to cuvettes and fluorescence emission at 520 nm was measured using a PTI fluorometer with 490 nm excitation. Substrate SEQ ID NO:30, a preferred Substrate of the invention, reacted with (i.e., detected) all three RNase enzymes, verifying that Substrate compositions of the invention are sensitive to a variety of RNase enzymes.
Assays were conducted using the method of the invention with fluorometric detection. Substrate SEQ ID NO:30 was mixed in 1× Assay Buffer at a concentration of 50 nM (50 pmoles ODN in 1.0 ml volume) in RNase-free disposable cuvettes. […] Dilutions of stock RNase A, RNase 1, and RNase T1 were made in water. […] Assays were incubated at 37° C. for 1 hour and examined for fluorescence emission at 520 nm using 490 nm excitation in a PTI fluorometer. […]

[2] = target: T1, RNase A (Bos taurus, UniProt P61823); assay: Fluorometric detection nuclease assay, RNase A; type: biochemical, mammalian; conditions: Substrate 50 nM
T1 sequence (P61823 27-150): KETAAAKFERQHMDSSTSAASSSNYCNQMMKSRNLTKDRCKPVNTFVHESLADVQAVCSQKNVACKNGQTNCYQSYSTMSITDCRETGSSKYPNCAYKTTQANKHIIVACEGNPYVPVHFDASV
Experimental: Nuclease assays were conducted using the method of the invention. SEQ ID NO:2 and SEQ ID NO:3 oligonucleotides were individually mixed in 1× Assay Buffer at a concentration of 50 nM (150 pmoles oligonucleotide in 3 mls volume). […] Assays were set up directly in cuvettes as follows:
Assay Mixes were incubated at 37° C. for 1 hour. Fluorescence emission spectra were measured using a PTI fluorometer with 490 nm excitation. Substrate SEQ ID NO:2 (having chimeric RNA-DNA composition) reacted with both DNase I (undesired) and RNase A (desired).
as §1, §2
Substrate SEQ ID NO:30 was mixed in 1× Assay Buffer at a concentration of 50 nM (150 pmoles oligonucleotide in 3 mls volume). RNase A was added at final concentrations of 10 ng/ml, 2 ng/ml, 1 ng/ml, and 0.4 ng/ml. […] Assay mixes were incubated at 37° C. in a cuvette directly in a PTI fluorometer. Fluorescence emission at 520 nm with 490 nm excitation was measured over time. At high nuclease concentrations, the reaction goes rapidly to completion. At lower nuclease concentrations, the reaction rate decreases but with longer incubation times an easily detectable signal is generated. Substrate concentration is fixed and input enzyme (i.e., the test sample) varies. Since the background is stable (monitored in the control reaction), use of extended incubation periods will increase the sensitivity of the assay.
Assays were conducted using the method of the invention with fluorometric detection. Substrate SEQ ID NO:30 was mixed in 1× Assay Buffer at a concentration of 50 nM (50 pmoles ODN in 1.0 ml volume) in RNase-free disposable cuvettes. […] Dilutions of stock RNase A, RNase 1, and RNase T1 were made in water. Undiluted and diluted nuclease (1 ul) was added to respective 1.0 ml Assay Mixes resulting in final dilution factors of 10^−3, 10^−4, 10^−5, 10^−6, 10^−7, 10^−8, and 10^−9. Assays were incubated at 37° C. for 1 hour and examined for fluorescence emission at 520 nm using 490 nm excitation in a PTI fluorometer. Final enzyme concentration reported notes the lowest concentration tested that was reproducibly positive with a signal:noise ratio of at least 2:1.

[3] = Ribonuclease assay on an environmental sample (tapwater), visual detection; type: biochemical; conditions: with Assay Buffer, Substrate 500 nM, room temperature 10 minutes
Experimental: Nuclease assays were conducted using the method of the invention. Dilutions of the test sample (tapwater) were made in nuclease-free water both with and without the addition of Assay Buffer. Samples were tested having 100%, 50%, 25%, 10%, 5%, and 1% tapwater. Assay Mixes contained test sample (diluted or undiluted tapwater) and Substrate (SEQ ID NO:30) at a concentration of 500 nM (50 pmoles ODN in 100 ul volume). Control Assay Mixes were in nuclease-free water without added tapwater. Duplicate Assays were performed with and without 1× Assay Buffer. Assay Mixes were incubated at room temperature for 10 minutes. Reactions were visually examined for fluorescence emission in the assay tubes without further manipulation. Tubes were suspended above an ultraviolet light source, visually inspected, and photographed using a digital camera. […] The test samples (with tapwater) emitted fluorescent signal. With Assay Buffer, tapwater was detectable when diluted to as little as 10 parts-per-thousand (1%). Without Assay Buffer, the assay was less sensitive and fluorescent emission was less intense. Addition of Buffer thus led to improved assay sensitivity.

[4] = target: RNase 1 (Escherichia coli, UniProt P21338); assay: Visual detection ribonuclease assay, cleavage of Substrate by RNase 1; type: biochemical, E. coli; conditions: final dilution factors of stock 10^−2 to 10^−7; Substrate 500 nM; room temperature 10 minutes
Experimental: It is commonly accepted that fluorometry provides for high sensitivity. To be useful, the visual method must also offer high sensitivity. Assays were conducted using the method of the invention with visual detection. Substrate SEQ ID NO:30 was mixed in 1× Assay Buffer at a concentration of 500 nM (50 pmoles ODN in 100 ul volume) in thin-walled, UV transparent tubes. […] Dilutions of stock RNase A, RNase 1, and RNase T1 were made in water. Undiluted and diluted nuclease (1 ul) was added to respective 100 ul Assay Mixes resulting in final dilution factors of 10^−2, 10^−3, 10^−4, 10^−5, 10^−6, and 10^−7. Assays were incubated at room temperature for 10 minutes and visually examined for fluorescence emission with UV excitation. […] The experiment took about 30 minutes to perform, including 15 minutes to set-up serial dilutions, 10 minutes incubation, and 5 minutes to visualize and photograph. Thus the method of the invention allows for a rapid, simple, and convenient visual assay for the presence of ribonuclease activity.

Sequence of RNase T1 (P00651 27-130): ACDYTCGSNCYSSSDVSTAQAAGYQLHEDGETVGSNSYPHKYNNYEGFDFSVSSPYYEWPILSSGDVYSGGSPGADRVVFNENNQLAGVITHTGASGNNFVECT
Sequence of RNase 1 (P21338 24-268): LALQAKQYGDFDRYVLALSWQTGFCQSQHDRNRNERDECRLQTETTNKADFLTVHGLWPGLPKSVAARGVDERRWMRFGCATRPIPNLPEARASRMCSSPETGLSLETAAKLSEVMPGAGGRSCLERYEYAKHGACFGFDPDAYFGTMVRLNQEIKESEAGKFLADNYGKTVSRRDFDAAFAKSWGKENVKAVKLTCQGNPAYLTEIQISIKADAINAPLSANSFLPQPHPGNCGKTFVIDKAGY

5′ Fluorescein-AauggcA-QSY-7 3′ (NAAUGGCAN; 5' fluorescein and 3' QSY-7 labels, nucleotide chemistry not given here) [SEQ ID NO:30]
Reactivity with RNase T1 (fluorometer) ([1]; RNase T1 333 units/ml, emission 520 nm, 490 nm excitation): reacted
Enzyme Concentration, lowest tested reproducibly positive with signal:noise at least 2:1, RNase T1 ([1]; fluorometric detection, dilution factor 10^−8): 0.00001 units/ml
Reactivity with RNase A (fluorometer) ([2]; RNase A 0.33 ug/ml, 37° C. 1 hour, 490 nm excitation): reacted
Assay background (hydrolysis of the Substrate) over time ([2]; control reaction without ribonuclease, 1× Assay Buffer, 37° C.): stable
Enzyme Concentration, lowest tested reproducibly positive with signal:noise at least 2:1, RNase A ([2]; fluorometric detection, 37° C. 1 hour, dilution factor 10^−8): 10 pg/mL
Lowest tapwater concentration detectable [3]: 1%
Detection of RNase 1 activity by visual examination [4]: clearly detectable
